In article PMC6100582 (Molecules : A Journal of Synthetic Chemistry and Natural …, 2018):

How the values were obtained:
[1] = test system: Escherichia coli ATCC 10536; assay: Minimum biofilm eradication assay; format: cell-based
Experimental: (§1) MBECs of fumardiamides 4a–f and succindiamides 5a–f were determined as follows. Each well (96-well plate) was filled with 100 µl of bacterial (10^7 CFU/mL) or yeast (5 × 10^6 CFU/mL) suspension. When the inhibition of yeast biofilm formation was tested, the wells were pre-treated with fetal bovine serum (FBS) (250 µl per well). Negative controls contained broth only. Positive controls were performed using standard antimicrobial drugs gentamycin (Gen) and Amph, respectively. […] Following incubation period, each well was aspirated, washed three times and vigorously shaken to remove all non-adherent bacteria/yeast. The remaining attached cells were fixed with methanol (15 min) and the plates were left to dry overnight. Formed biofilm was stained with crystal violet (1%, 5 min). Excess stain was rinsed by placing the plate under running tap water and the plates were left to dry. Adherent cells were solubilized using ethanol. The absorbance was read at 570 nm. The MBEC value represents the lowest dilution of a compound at which bacteria fail to grow.

[2] = test system: Salmonella enteritidis MFBF 11945; assay: Minimum biofilm eradication assay; format: cell-based
Experimental: as §1

[3] = test system: panel of nine different human cancer cell lines; assay: Cytostatic activity, panel of nine human cancer cell lines; format: cell-based; conditions: all nine tested cell lines, read-out: IC50 (range over all tested cell lines)
Experimental: To gain insight into cytotoxicity of newly synthesized compounds 4a–f and 5a–f, their cytostatic activity was evaluated in vitro against a panel of nine different human cancer cell lines, representing various solid tumor types including pancreatic adenocarcinoma (Capan-1), chronic myeloid leukemia (Hap1), colorectal carcinoma (HCT-116), lung carcinoma (NCI-H460), acute lymphoblastic leukemia (DND-41), acute myeloid leukemia (HL-60), chronic myeloid leukemia (K-562), multiple myeloma (MM.1S) and non-Hodgkin lymphoma (Z-138).
Cytostatic activity was evaluated in vitro on nine different types of human tumor cell lines: Capan-1, Hap1, HCT-116, and NCI-H460, as well as hematological tumors such as DND-41, HL-60, K-562, MM.1S and Z-138 as described previously. All human tumor cell lines were acquired from the American Type Culture Collection (ATCC, Manassas, VA, USA), except for the DND-41 cell line which was purchased from the Deutsche Sammlung von Mikroorganismen und Zellkulturen (DSMZ Leibniz-Institut, Braunschweig, Germany) and the Hap1 cell line which was purchased from Horizon Discovery (Waterbeach, UK). […] The plates were incubated and monitored at 37 °C for 72 h in an IncuCyte (Essen BioScience Inc., Ann Arbor, MI, USA) for real-time imaging. […]

[4] = test system: broad variety of viral infections; assay: Antiviral evaluation, broad variety of viruses; format: cell-based; conditions: Vero cells; for EC50: reovirus-1, sindbis virus and Punta Toro virus, read-out: EC50 (range over viruses)
[5] = test system: Vero cell cultures; conditions: Vero cells, microscopically detectable alteration of cell morphology; unit not printed in head (EC50 columns µM)
[6] = test system: panel of bacteria, Mycobacterium strains and fungi; assay: Antimicrobial screening, panel of bacteria, Mycobacterium strains and fungi; format: cell-based; conditions: S. aureus, S. pneumoniae, A. baumannii and C. albicans ATCC 90028

Structure (SMILES)	MBEC [1] [µg/mL]	MBEC [2] [µg/mL]	IC50 [3] [µM]	selectivity index (SI), MCC and EC50 ratio [4]	EC50 [4] [µM]	Cytotoxicity MCC (minimum cytotoxic concentration) [5]	MIC values (range over strains) [6] [µg/mL]
COc1cc(NC(C)CCCNC(=O)/C=C/C(=O)Nc2cccc(F)c2)c2ncccc2c1 (centres unmarked) [Compound 4a, (2E)-N-(3-Fluorophenyl)-N′-{4-[(6-methoxyquinolin-8-yl)amino]pentyl}but-2-enediamide]	100	>100	5.7 to 31.2	–	–	–	–
COc1cc(NC(C)CCCNC(=O)/C=C/C(=O)Nc2ccc(F)cc2)c2ncccc2c1 (centres unmarked) [Compound 4b, (2E)-N-(4-Fluorophenyl)-N′-{4-[(6-methoxyquinolin-8-yl)amino]pentyl}but-2-enediamide]	50	>100	–	–	–	–	–
COc1cc(NC(C)CCCNC(=O)/C=C/C(=O)Nc2cccc(Cl)c2)c2ncccc2c1 (centres unmarked) [Compound 4c, (2E)-N-(3-Chlorophenyl)-N′-{4-[(6-methoxyquinolin-8-yl)amino]pentyl}but-2-enediamide]	50	>100	–	1.8–3.7	3.1 to 5.5	10	–
COc1cc(NC(C)CCCNC(=O)/C=C/C(=O)Nc2ccc(Cl)cc2)c2ncccc2c1 (centres unmarked) [Compound 4d, (2E)-N-(4-Chlorophenyl)-N′-{4-[(6-methoxyquinolin-8-yl)amino]pentyl}but-2-enediamide]	50	>100	–	–	–	–	6.1 to 12.5
COc1cc(NC(C)CCCNC(=O)/C=C/C(=O)Nc2cccc(C(F)(F)F)c2)c2ncccc2c1 (centres unmarked) [Compound 4e, (2E)-N′-{4-[(6-Methoxyquinolin-8-yl)amino]pentyl}-N-[3-(trifluoromethyl)phenyl]but-2-enediamide]	50	>100	–	1.8–3.7	3.1 to 5.5	10	–
COc1cc(NC(C)CCCNC(=O)/C=C/C(=O)Nc2ccc(C(F)(F)F)cc2)c2ncccc2c1 (centres unmarked) [Compound 4f, (2E)-N′-{4-[(6-Methoxyquinolin-8-yl)amino]pentyl}-N-[4-(trifluoromethyl)phenyl]but-2-enediamide]	50	>100	–	–	–	–	–
